According to patent US6310093A (priority 1998, dated 2001):
Read-outs that look alike come from different tables or passages of the source.

Columns and labels:
[1] = system: neuronal cultures; test: Glutamate production by intact and damaged neuronal cultures with added glutamine; assay type: cell-based, mouse (Swiss Webster); details: for Glutamate concentration (in words) / Glutamate production (S): 2 mM Gln
Procedure: When 2 mM glutamine is added to intact neuronal cultures, the rate at which glutamate accumulates in the culture medium increases with time (FIG. 2). Since the clearance of medium glutamate by neuronal cultures is extremely slow, one estimate of the rate of glutamate production by neurons exposed to glutamine can be obtained from the initial rate of glutamate accumulation. Using the difference in glutamate concentrations at 1 and 15 min after glutamine addition, a value of 0.032±0.006 μM/min (12.8 pmol/min) was obtained. Since glutamine exposure itself eventually causes neuronal death and high rates of glutamine hydrolysis, this estimate of glutamate production should be viewed as an upper limit. However, this value is similar to that obtained by comparing glutamate production by glial and mixed neuronal-glial cultures exposed to glutamine (see below).
In the absence of added glutamine (i.e., in the 0.15 mM glutamine manufactured by the neuronal cultures), glutamate production into the medium of cultures lysed by freezing and thawing occurred at a rate of 0.035±0.006 μM/min (14 pmol/min). […] Thus, damaged neurons incubated in 2 mM glutamine produce within 6-8 min an amount equal to that released by freeze-thawing.
(§1) Pre-column derivatization with o-phthalaldehyde (OPA, Sigma) and separation by reversed phase HPLC was used. A Gilson HPLC was fitted with a Hewlett-Packard model 1046A fluorimetric detector (excitation 340 nm, emission 420 nm). Medium was collected from cell culture at various times, and frozen at -80° C., prior to dilution of 5 or 10 μl into auto-sampler vials containing 40 or 45 μl dimethylformamide:water 1:3 (derivatives with 2-mercaptoethanol) or 1:9 (derivatives with N-acetyl-L-cysteine). For analysis of the derivatives formed with 2-mercaptoethanol, samples were reacted according to published methods (Newcomb, R. (1989) LC GC 7, 570-578; Lindroth, P., and Mopper. K., (1979) Anal. Chem. 51, 1667-1674.), and a gradient of 0-40% methanol in 1.25 mM sodium phosphate pH 6.2 over 20 min was used to elute the derivatives from a 4.5×250 mm Beckman Ultrasphere octadecylsilica column (dp 5 μm) at 1 ml/min. For analysis of the derivatives formed with N-acetyl-L-cysteine (Bruckner), samples were reacted with 25 μl of 1 mg/ml OPA, and 50 μl of 1 mg/ml N-acetyl-L-cysteine (Fluka) in 0.5 M potassium borate pH 10.0. Chromatography was carried out on a 4.5×250 mm Phenomonex Primesphere "HC" octadecylsilica column (dp 5 μm) using a gradient of 0-35% methanol in 15 mM sodium phosphate pH 6.2 (0.13% tetrahydrofuran) over 65 minutes at 1 ml/min. It was shown for each of the experimental conditions (ie. glial and control and damaged neuronal and mixed cultures) that both analytical systems gave results for glutamate and glutamine measurements which were, within error, identical.
Glutamate concentrations were converted to units of pmol/μl of culture medium, or μM. In the absence of cellular uptake (ie, in damaged neuronal cultures), the rate of glutamate production was obtained directly from the measurements of the amounts of glutamate in culture medium at various times.

[2] = system: mixed glial-neuronal cultures; test: Glutamate production in intact mixed glial-neuronal cultures with added glutamine; assay type: cell-based, mouse (Swiss Webster)
Procedure: Added glutamate (15 μM) was rapidly cleared from the medium of the mixed glial-neuronal cultures (FIG. 1). The uptake again fit to a first order process and occurred with a rate constant of 0.072 min^-1. […] When the intact mixed cultures were maintained in the absence or presence of added 2 mM glutamine, they also maintained steady state concentrations of glutamate below 1 μM (0.37±0.06 μM and 0.83±0.47 μM respectively). Thus, from the steady state equation, the rates of glutamate production were estimated to be 0.027 μM/min (11 pmol/min) in the absence of added glutamine and 0.060 μM/min (24 pmol/min) in the presence of 2 mM glutamine.
Measurements of glutamate and glutamine concentrations, as well as of the release of the cytoplasmic marker enzyme, lactate dehydrogenase (LDH), were made with the medium of mixed neuronal-astrocyte cultures exposed to hypoxic and control conditions, with and without the addition of 2 mM glutamine. For comparative purposes, the measurements were made in mixed cultures in which complete neuronal death was caused by a 5h exposure to 500 μM NMDA. The first glutamate measurement was made at the end of hypoxia (5h with mixed cultures, 7h with astrocytes), and the second at 19 h after the subsequent return of oxygen. If added, glutamine was present during and after hypoxia. LDH released by the experimental treatment was measured at 24 h, and is expressed as a percentage of the total cellular content (neurons in mixed cultures, and glia in glial cultures). To verify the neuronal origin of LDH and glutamate, similar experiments were performed on cultures that only contained glia.
as §1, with “Chromatography was carried out on a 4.5×250 mm Phenomonex Primesphere "HC" octadecylsilica column (dp 5 μm) using a gradient of 0-35% methanol in 15 mM sodium phosphate pH 6.2 (0.13% tetrahydrofuran) over 65 minutes at 1 ml/min. It was shown for each of the experimental conditions (ie. glial and control and damaged neuronal and mixed cultures) that both analytical systems gave results for glutamate and glutamine measurements which were, within error, identical.” left out
In cultures where glutamate concentrations are (within error) constant, d[Glu]/dt is close to zero, and cellular production of medium glutamate is balanced by its removal, such that glutamate production can be calculated from the steady state equation: […]
Calculations were performed using the slopes of the regression lines which describe the rate constants for glutamate removal and the mean values for culture medium glutamate concentrations. […] For comparative purposes, glutamate production rates can be expressed as pmol of glutamate produced per min in each culture. […]

[3] = system: pure neuronal cultures (cortical neurons) exposed to glutamine
[4] = system: pure neuronal cultures (cortical neurons) exposed to glutamine; test: cells; details: Mus musculus, Cortical neurone, 24 h, read-out: neuronal LDH release
[5] = system: mixed neuronal-astrocyte cultures; test: cells; details: Mus musculus
[6] = Table 2, glial-neuronal, 2 mM Gln

SMILES: NC(=O)CC[C@H](N)C(=O)O [Gln, glutamine]
- glutamate production by damaged neurons vs intact neurons or glia ([1]; 2 mM glutamine): 10-30 fold
- Glutamate concentration (in words) ([1]; NMDA-treated neurons): increases linearly
- Glutamate production (S) ([1]; NMDA-treated neurons): 0.54 ± 0.09 µM/min
- glutamate production per culture ([1]; NMDA-treated neurons, 2 mM glutamine): 216 pmol/min
- Glutamate concentration (in words) ([1]; freeze-thaw damaged neurons): increases linearly
- Glutamate production (S) ([1]; freeze-thaw damaged neurons): 0.79 ± 0.08 µM/min
- glutamate production per culture ([1]; freeze-thawed neurons, 2 mM glutamine): 316 pmol/min
- Glutamate concentration (in words) ([1]; intact neurons): increases
- Glutamate production (S) ([1]; intact neurons): 0.032 ± 0.006 µM/min
- glutamate production per culture ([1]; intact neurons, 2 mM glutamine): 12.8 pmol/min
- Glu ([2]; 2 mM Gln, 5 h, mixed cultures, no hypoxia): 0.83 ± 0.47 µM
- cytotoxicity at 2000 µM ([2]; Mus musculus, 24 h, read-out: % cell death (LDH)): 17.6%
- Glutamate concentration [2, 6]: 0.83 ± 0.47
- Glutamate production (S) [2, 6]: 0.06
- glutamate production per culture ([2]; mixed, 2 mM glutamine): 24 pmol/min
- medium glutamate [3]: 197 ± 23 μM Glu
- cytotoxicity at 2000 µM [4]: 62 ± 22%
- cytotoxicity at 2000 µM ([5]; 7 h, read-out: neuronal LDH release): 48.5 ± 14.4%
- cytotoxicity at 2000 µM ([5]; 24 h, read-out: % cell death (LDH)): 42.2%
- cytotoxicity at 2000 µM ([5]; read-out: neuronal death in hypoxia with added glutamine): ~40%
